Source: ChEMBL document CHEMBL1122477, “Neuroleptic activity and dopamine-uptake inhibition in 1-piperazino-3-phenylindans” (J Med Chem, 1983)

Experiments:
[1] = biological target: T1, Sodium-dependent serotonin transporter (Rattus norvegicus, UniProt P31652)
[2] = biological target: Sodium-dependent dopamine transporter (Rattus norvegicus, UniProt P23977)
Description: Effect on synaptosomal uptake inhibition of Dopamine transporter

[3] = species: Mus musculus
Description: (§1) Compound (administered intraperitoneally) was assessed for neuroleptic activity to antagonize methyl phenidate induced stereotypes in mice

[4] = biological target: Adrenergic receptor beta (Rattus norvegicus, UniProt P18090+P10608+P26255)
Description: (§2) Effect on synaptosomal uptake inhibition of Noradrenaline (NA)

[5] = system: Rattus norvegicus; experiment: Tested orally in rats for antagonism of stereotypies induced by amphetamine; assay type: functional; settings: Rattus norvegicus, po; read-out: ED50
[6] = species: Rattus norvegicus; experiment: animal or person; settings: po
Description: (§3) Ability to induce catalepsy in rats perorally, an effect normally related to clinical extrapyramidal side effects

[7] = biological target: T1, Sodium-dependent serotonin transporter; experiment: Effect on synaptosomal uptake inhibition of 5-hydroxytryptamine (5-HT); assay type: functional
[8] = species: Mus musculus; experiment: Compound was assessed for thymoleptic activity by its ability to antagonize tetrabenazine ptosis in mice; assay type: functional
[9] = biological target: Norepinephrine transporter (Rattus norvegicus, UniProt Q9WTR4)
Chain of Norepinephrine transporter (Q9WTR4 whole entry): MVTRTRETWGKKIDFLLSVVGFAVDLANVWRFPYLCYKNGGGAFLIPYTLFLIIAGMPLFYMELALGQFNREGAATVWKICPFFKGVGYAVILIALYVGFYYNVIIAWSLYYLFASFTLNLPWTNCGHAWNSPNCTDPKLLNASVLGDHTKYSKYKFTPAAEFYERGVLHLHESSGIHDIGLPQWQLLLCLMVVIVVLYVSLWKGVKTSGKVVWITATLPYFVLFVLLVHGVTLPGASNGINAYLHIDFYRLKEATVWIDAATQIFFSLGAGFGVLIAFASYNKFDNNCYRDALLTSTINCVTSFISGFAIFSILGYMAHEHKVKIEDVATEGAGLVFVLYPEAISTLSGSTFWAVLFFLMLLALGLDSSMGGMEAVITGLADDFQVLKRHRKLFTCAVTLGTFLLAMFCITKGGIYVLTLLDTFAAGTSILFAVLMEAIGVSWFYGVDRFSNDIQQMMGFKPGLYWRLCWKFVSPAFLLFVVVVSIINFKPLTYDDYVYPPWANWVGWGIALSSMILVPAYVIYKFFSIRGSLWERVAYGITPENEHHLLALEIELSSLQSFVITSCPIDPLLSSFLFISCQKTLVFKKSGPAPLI
Description: as §2

[10] = species: Rattus norvegicus
Description: as §3

[11] = biological target: Dopamine receptor
Description: Effect on synaptosomal uptake inhibition of Dopamine receptor

[12] = system: Rattus norvegicus; experiment: Compound was tested orally (po) in rats for antagonism of stereotypies induced by amphetamine; value ranges from 2.5-4.7; assay type: functional
[13] = system: Rattus norvegicus; experiment: Compound was tested orally (po) in rats for its ability to induce catalepsy, an effect normally related to clinical extrapyramidal side effects;value ranges from 1.3-3.4; assay type: functional
[14] = species: Mus musculus; experiment: animal or person; settings: ip
Description: as §1

T1 sequence (P31652 whole entry): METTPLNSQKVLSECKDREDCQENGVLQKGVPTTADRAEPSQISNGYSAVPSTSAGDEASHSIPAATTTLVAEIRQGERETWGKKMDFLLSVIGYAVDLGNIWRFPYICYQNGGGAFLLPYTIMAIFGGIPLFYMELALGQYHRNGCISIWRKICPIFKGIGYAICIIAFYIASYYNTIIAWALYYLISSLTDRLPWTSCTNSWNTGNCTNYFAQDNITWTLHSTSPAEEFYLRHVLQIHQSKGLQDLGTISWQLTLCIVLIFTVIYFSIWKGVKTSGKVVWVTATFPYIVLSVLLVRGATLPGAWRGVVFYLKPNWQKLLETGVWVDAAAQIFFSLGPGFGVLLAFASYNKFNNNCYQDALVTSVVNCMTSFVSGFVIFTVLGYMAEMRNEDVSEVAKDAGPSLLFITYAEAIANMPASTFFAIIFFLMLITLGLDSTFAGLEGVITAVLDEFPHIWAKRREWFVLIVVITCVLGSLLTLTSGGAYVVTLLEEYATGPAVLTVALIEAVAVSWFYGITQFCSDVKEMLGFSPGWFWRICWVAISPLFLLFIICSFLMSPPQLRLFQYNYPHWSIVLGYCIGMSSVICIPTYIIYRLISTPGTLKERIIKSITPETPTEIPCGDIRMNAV
Chain of Sodium-dependent dopamine transporter (P23977 whole entry): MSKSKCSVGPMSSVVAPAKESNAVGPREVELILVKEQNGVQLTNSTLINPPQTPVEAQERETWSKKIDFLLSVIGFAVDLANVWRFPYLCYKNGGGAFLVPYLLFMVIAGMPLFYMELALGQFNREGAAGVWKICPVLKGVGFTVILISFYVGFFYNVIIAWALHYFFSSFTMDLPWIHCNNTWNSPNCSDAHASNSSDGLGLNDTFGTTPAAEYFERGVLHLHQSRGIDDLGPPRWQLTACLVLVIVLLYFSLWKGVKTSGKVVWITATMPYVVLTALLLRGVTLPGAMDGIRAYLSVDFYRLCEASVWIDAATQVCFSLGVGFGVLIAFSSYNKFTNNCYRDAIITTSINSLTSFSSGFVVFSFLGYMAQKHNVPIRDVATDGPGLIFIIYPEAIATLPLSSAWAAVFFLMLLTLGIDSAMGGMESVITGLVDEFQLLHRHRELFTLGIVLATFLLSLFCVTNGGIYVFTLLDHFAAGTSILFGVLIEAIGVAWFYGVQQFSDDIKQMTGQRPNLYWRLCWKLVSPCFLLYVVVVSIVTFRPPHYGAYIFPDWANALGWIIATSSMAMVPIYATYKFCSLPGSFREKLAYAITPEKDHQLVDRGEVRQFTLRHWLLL

| Structure (SMILES) | IC50 [1] [nM] | IC50 [2] [nM] | ED50 [3] [µM/kg] | IC50 [4] [nM] | ED50 [5] [µmol/kg] | IC50 [7] [nM] | ED50 [8] [µmol/kg] | IC50 [9] [nM] | other results |
| --- | --- | --- | --- | --- | --- | --- | --- | --- | --- |
| Cl.Cl.OCCCCN1CCN(C2CC(c3ccc(F)cc3)c3ccc(F)cc32)CC1 (cis isomer) | 1900 | 9 | 54 | 30 | – | – | – | – | – |
| Cl.Cl.OCCCCN1CCN(C2CC(c3ccc(F)cc3)c3ccc(F)cc32)CC1 (trans isomer) | 610 | 25 | 6.5 | 19 | 7.7 | – | – | – | ED50 [6]: 47 µmol/kg |
| CN(C)C[C@@H]1C2CCC(CC2)[C@@H]1c1ccc(Cl)c(Cl)c1 (relative stereo) | – | – | – | – | – | 51 | 43 | 5.4 | – |
| OCCN1CCN(C2CC(c3ccc(F)cc3)c3ccc(C(F)(F)F)cc32)CC1 (trans isomer) | 7000 | 520 | 0.07 | 660 | 0.22 | – | – | – | ED50 [10]: 0.27 µM/kg |
| CN1CCN(C2CC(c3ccc(Cl)c(Cl)c3)c3ccccc32)CC1.Cl.Cl (single isomer, unassigned; 98) | – | – | – | – | – | 2300 | > 89 | 910 | IC50 [11]: 1700 nM |
| OCCN1CCN(CC/C=C2/c3ccccc3Sc3ccc(C(F)(F)F)cc32)CC1 [Z-FLUPENTIXOL] | – | – | – | – | – | – | – | – | ED50 [12]: 3.5 µmol/kg; ED50 [13]: 2.1 µmol/kg; ED50 [14]: 0.14 µmol/kg |
